Measurements: patent publication US6469051B2, “Diaminorhodamine derivative” (priority 1997, dated 2002)
One block for each molecule: values may come before it.

Key:
[1] = test system: Vascular smooth muscle cells derived from rat arota; experiment: Imaging of nitric oxide produced by vascular smooth muscle cells; assay type: cell-based
Protocol: The normal lines represent fluorescence intensity of each cell and bold lines represent the averages thereof.
Vascular smooth muscle cells derived from rat arota were cultured in a glass bottom dish, and stimulated with LPS (12.5 μg/ml), […] (150 U/ml), IL-1β (25 U/ml) and TNF-α (30 ng/ml) to induce a nitric oxide synthase. The culture was continued for about 12 hours, and then the culture medium was changed to Krebs-Ringer-phosphate buffer (KRP) in which DAR-1EE was dissolved (Example 2, 10 μM) to allow uptake of […] by the cells. The cells were cultured at 37° C. for 1 hour, and washed, and the culture medium was changed to KRP in which L-Arg or L-NMMA was dissolved. Changes in intracellular fluorescence with time was observed under a fluorescence microscope (Ex. 530-560 nm, Em. 550-610 nm, magnification: ×20).

[2] = Changes in sensitivity (absorbance, fluorescence intensity) at varying pHs; assay type: physicochemical; details: about 1 μM in 78 mM phosphate buffer, neutral to weakly acidic, approximately pH 4; Ex. 565 nm-Em. 580 nm
Protocol: DAR-1T was dissolved in purified water to prepare a solution of a concentration of 100 μM. The solution was added to phosphate buffer (78 mM) adjusted to each pH at a final concentration of about 1 μM, and absorbance and fluorescence intensity were measured. The measurement wavelengths of fluorescence were set to Ex. 565 nm-Em. 580 nm. In the figure, (a) represent the results of the absorptiometric measurement and (b) represents the results of fluorescence intensity measurement.

[3] = Fluorescence maximum wavelengths; assay type: physicochemical
Source text: Maximum wavelengths: Ex. 565 nm-Em. 580 nm

[4] = buffer, pH 7.4; cited from earlier work

- cellular uptake and intracellular hydrolysis ([1]; 10 μM in KRP, 37° C., 1 hour): uptaken into the cells and hydrolyzed
SMILES: CCOC(=O)c1c(-c2c3ccc(=[N+](CC)CC)cc-3oc3cc(N(CC)CC)ccc23)ccc(N)c1N [DAR-1EE, [9-(3,4-diamino-2-ethoxycarbonylphenyl)-6-diethylamino-3H-xanthen-3-ylidene]diethyliminium]
- intracellular fluorescence intensity with time, nitric oxide producing cells ([1]; 10 μM DAR-1EE loaded 1 hour at 37° C., stimulated cells (LPS, INF, IL-1β, TNF-α), 1 mM L-Arg): Fluorescence intensity increased with time
- intracellular fluorescence intensity with time, cells producing no nitric oxide (non-stimulated) ([1]; 10 μM DAR-1EE loaded, non-stimulated cells, 1 mM L-Arg): substantially no change in fluorescence intensity
- intracellular fluorescence intensity with time, cells added with the NOS inhibitor ([1]; 10 μM DAR-1EE loaded, stimulated cells, 1 mM L-Arg+10 mM NMMA): substantially no change in fluorescence intensity

- fluorescence intensity as a function of pH [2]: no changes in fluorescence intensity
- Maximum wavelength Em. ([3]; emission): 580 nm
- Maximum wavelength Ex. ([3]; excitation): 565 nm
SMILES: CCN(CC)c1ccc2c(-c3ccc4nn[nH]c4c3C(=O)O)c3ccc(=[N+](CC)CC)cc-3oc2c1 [DAR-1T, [9-(7-carboxybenzotriazol-6-yl)-6-diethylamino-3H-xanthen-3-ylidene]diethyliminium]

SMILES: CCNCCN(CC)N(O)N=O [NOC-12]
- half life [4]: 5.45 h
